# Experimental data from article PMC11173533, “Baicalin and Baicalein Enhance Cytotoxicity, Proapoptotic Activity, and Genotoxicity of Doxorubicin and Docetaxel in MCF-7 Breast Cancer Cells” (Molecules, 2024).
# How the values were obtained:
# MCF-7 cell [1] = test system: MCF-7 cell; parameters: method as in Liu et al. [48]; settings: ref Liu et al. [48]; read-out: IC50, MCF-7 cell growth inhibition; cited from earlier work
# [2] = test system: cleaved PARP in HUVEC-ST cells; assay: Cleaved PARP In-Cell ELISA in HUVEC-ST cells; format: cell-based, human
# Description: (§1) Unless otherwise indicated, in experiments, cells were seeded at an appropriate density for the specific assay into 96-well plates or Petri dishes. They were then incubated in standard culture conditions, which included a temperature of 37 °C, 100% relative humidity, and a 5% CO2 incubator. […] After treatment, the cells were washed with PBS and, depending on the experiment, immediately used for measurement or cultured in a fresh medium for 24 or 48 h. Control cells were treated with a corresponding volume of PBS. Additional controls for solvents were also performed.
# (§2) The expression of the protein was monitored using a target-specific primary antibody against an 85 kDa stable fragment of PARP proteolysis and a horseradish peroxidase-conjugated detection reagent.
# (§3) The amount of cleaved PARP was measured in cells according to the manufacturer’s protocol immediately after the treatment and after 24 or 48 h postincubation. The absorbance was measured at a wavelength of λ = 450. Additionally, the whole cell staining was performed with Janus Green dye, and the absorbance was measured at a wavelength of λ = 615. […] Subsequently, the values were calculated as a fold increase, which means the ratio of an increased amount of cleaved PARP to the amount of cleaved PARP in control cells.
# HUVEC-ST cells [3] = assay: Mitochondrial membrane potential (JC-1) in HUVEC-ST cells; format: cell-based, human
# Description: as §1
# The mitochondrial membrane potential was measured with the membrane-permeant JC-1 fluorescent probe. […] Thus, the measurement of the ratio of JC-1 dimer to monomer fluorescence can be used for estimating changes in mitochondrial membrane potential (ΔΨm).
# The cells were then incubated in complete darkness for 30 min at 37 °C. After incubation, the cells were washed to remove the dye and suspended in fresh HBSS solution. Finally, the fluorescence intensity was measured using a Cary Eclipse spectrofluorometer (Varian, Inc.) at λex/em = 475 nm/530 nm for monomers and at λex/em = 535 nm/590 nm for dimers. Subsequently, the ratio of the fluorescence intensities at 530 nm/590 nm was calculated. The mitochondrial potential in both cell lines was measured immediately after incubation with investigated compounds. The results are expressed as a percentage of the control, considered 100%.
# HUVEC-ST cells [4] = assay: Cytometric measurement of doxorubicin accumulation in HUVEC-ST cells; format: cell-based, human; settings: 22 h preincubation with flavonoid IC50, 1 h study period
# Description: The aromatic rings in the hydrophobic part of doxorubicin give the drug molecule fluorescent properties (λex = 490 nm, λem = 590 nm). Thus, the flow cytometric measurement of drug fluorescence inside the cells allows for the monitoring of its transport rate through the cell membrane. The increase in the intensity of drug fluorescence inside the cells is highly correlated with its accumulation.
# The DOX was added to the cell suspension to achieve a final concentration equal to the IC50 value. During one hour of incubation (temp 37 °C) with the drug, samples for cytometric measurement were taken from the cell suspension after the first 5 min and then after every 10 min. Samples were analyzed using the flow cytometer LSR® II from Becton Dickinson (San Jose, CA, USA) using an argon laser with a wavelength of λ = 488 nm. Doxorubicin fluorescence intensity was calculated per single cell.
# MCF-7 cells [5] = assay: Alkaline comet assay in MCF-7 cells; format: cell-based, human
# Description: as §1
# The comet assay, also known as the single-cell gel electrophoresis assay, is a highly sensitive and versatile method for measuring single- and double-stranded DNA breaks. The assay uses an electric field to move negatively charged DNA fragments through an agarose gel. The amount of migration reflects the level of DNA damage in the cells.
# The analysis was performed under alkaline conditions, according to the method of Singh et al., on cells immediately after the treatment and 24 or 48 h postincubation. […] One hundred randomly chosen cells were analyzed on each slide using a fluorescence microscope Zeiss Axio Scope A1 (Carl Zeiss, Oberkochen, Germany) with a video camera connected to the image-analysis system Lucia-Comet v. […]
# MCF-7 cells [6] = assay: Annexin V FITC/propidium iodide double staining in MCF-7 cells; format: cell-based, human; settings: for Viable cells: docetaxel IC50 + high concentration of flavonoid
# Description: as §1
# (§4) This assay is based on the principle that, in viable cells, phosphatidylserine (PS) is located in the inner membrane (side facing the cytoplasm). However, upon induction of apoptosis, PS is translocated to the outer membrane (PS also appears on the necrotic cell surface). The exposed phosphatidylserine can be detected by protein Annexin V stained with FITC dye. The addition of propidium iodide (PI) enabled necrotic cells to be distinguished. Thus, this method is convenient for counting and differentiating live cells from those undergoing apoptosis or necrosis.
# (§5) The analysis was performed according to the manufacturer’s protocol on cells immediately after the treatment and 24 or 48 h postincubation. Samples were analyzed using the flow cytometer LSR® II from Becton Dickinson (San Jose, CA, USA) using an argon laser with a wavelength of λ = 488 nm.
# MRP1 = test system: MRP1; parameters: method as in PMID 15670588; settings: 25 µmol/L; ref [65]; cited from earlier work
# MRP2 = test system: MRP2; parameters: method as in PMID 15670588; settings: 25 µmol/L; ref [65]; cited from earlier work
# HUVEC-ST cells [7] = assay: Annexin V FITC/propidium iodide double staining in HUVEC-ST cells; format: cell-based, human
# Description: as §1, §4, §5
# [8] = test system: cleaved PARP in MCF-7 cells; assay: Cleaved PARP In-Cell ELISA in MCF-7 cells; format: cell-based, human; settings: docetaxel + flavonoid IC50, most intense of all times and combinations
# Description: as §1, §2, §3
# MCF-7 cell [9] = test system: MCF-7 cell; parameters: method as in Wang et al. [49]; settings: 5–100 µmol/L for 72 h; ref Wang et al. [49]; cited from earlier work
# [10] = flavonoid IC50 alone 24 h, control = 100%
# [11] = docetaxel IC50 + flavonoid IC50, 24 h after incubation
# [12] = doxorubicin IC50 + flavonoid IC50 preincubation, 48 h post-incubation
# [13] = flavonoid IC50 alone 24 h, 24 h after incubation
# [14] = flavonoid IC50 alone 24 h, 48 h after incubation
# [15] = flavonoid alone (high concentration), 48 h after incubation
compound,measurement,setting,value
"O=c1cc(-c2ccccc2)oc2cc(O)c(O)c(O)c12 [baicalein, 5,6,7-Trihydroxyflavone]",IC50,MCF-7 cell [1],85.1 ± 1.26 µM
same,Amount of cleaved PARP relative to control cells,"[2]; doxorubicin + flavonoid IC50, 48 h after incubation",twice higher than in control cells
same,Amount of cleaved PARP relative to control cells,"[2]; flavonoid IC50 alone, 24 and 48 h after incubation",nearly two times higher than in control cells
same,"Mitochondrial membrane potential ΔΨm, % of control",HUVEC-ST cells [3]; doxorubicin IC50 after 22 h preincubation with flavonoid IC50,33%
same,Mitochondrial membrane potential ΔΨm,HUVEC-ST cells [3]; doxorubicin IC50 after preincubation with flavonoid in low concentration (IC10),increasing ΔΨm to the level of control
same,"Mitochondrial membrane potential ΔΨm, % of control",HUVEC-ST cells [3]; [10],59%
same,Enhancement of doxorubicin accumulation/influx,HUVEC-ST cells [4],increased doxorubicin accumulation was maintained for the whole study period
same,DNA in the comet tail,MCF-7 cells [5]; [11],16%
same,DNA in the comet tail,"MCF-7 cells [5]; docetaxel IC50 + flavonoid IC50, immediately after incubation",19%
same,AV+/PI− cells (undergoing apoptosis),MCF-7 cells [6]; [12],21%
same,AV+/PI− cells (undergoing apoptosis),MCF-7 cells [6]; [13],~20%
same,AV+/PI+ cells,MCF-7 cells [6]; [14],28%
same,Inhibition of MRP1 protein activity,MRP1,inhibit the activity of MRP2 and MRP1 proteins
same,Inhibition of MRP2 protein activity,MRP2,inhibit the activity of MRP2 and MRP1 proteins
same,AV+/PI+ cells,HUVEC-ST cells [7]; [11],44%
same,Change in percentage of AV+/PI− or AV+/PI+ cells vs doxorubicin alone,"HUVEC-ST cells [7]; doxorubicin IC50 + flavonoid IC50, 24 h after incubation",increased almost two-fold
same,AV+/PI− cells,HUVEC-ST cells [7]; [15],10%
"O=C(O)[C@H]1O[C@@H](Oc2cc3oc(-c4ccccc4)cc(=O)c3c(O)c2O)[C@H](O)[C@@H](O)[C@@H]1O [baicalin, baicalein 7-O-β-D-glucuronide]","PARP cleavage, fold increase to control",[8],2.5 fold
same,"Mitochondrial membrane potential ΔΨm, % of control",HUVEC-ST cells [3]; [10],72%
same,Enhancement of doxorubicin accumulation/influx,HUVEC-ST cells [4],observed only during the first 30 min of the study
same,Viable cells,MCF-7 cells [6]; 24 h after incubation,22%
same,Viable cells,MCF-7 cells [6]; 48 h after incubation,24%
same,AV+/PI− cells (undergoing apoptosis),MCF-7 cells [6]; [12],34%
same,AV+/PI− cells (undergoing apoptosis),MCF-7 cells [6]; [13],~20%
same,AV+/PI+ cells,MCF-7 cells [6]; [14],25%
same,Inhibitory effect on MCF-7 cell proliferation,MCF-7 cell [9],did not observe any inhibitory effect
same,Viable cells,"HUVEC-ST cells [7]; doxorubicin IC50 + lower concentration (IC10) of flavonoid, longest postincubation time (48 h)",55%
same,AV+/PI+ cells,HUVEC-ST cells [7]; [15],30%
same,AV+/PI− cells,HUVEC-ST cells [7]; [15],19%
